# Test results as given in patent publication US12655380B2, “Fluidic device” (UNIVERSITY PUBLIC CORPORATION OSAKA, priority 2019, dated 2026).
# Test system: BBB model (human cerebrovascular endothelial cells, pericytes, astrocytes)
# Assay: Barrier Function Evaluation Experiment 2: passage of the fluorescent dye through the BBB model in the fluidic device
# Type: in vitro ADME
# Settings: 200 μM Lucifer Yellow in first flow path; after 5 minutes (300 seconds) flow; measured in the neuron cell culture module in the second accommodation section, behind the BBB model; FIG. 25(b)/FIG. 26
# Description: Specifically, a cubic polycarbonate three-dimensional frame having a side length of 5 mm was prepared, and a 1.5% agarose gel was poured into an opening of the three-dimensional frame and gelled to form a film-shaped window from the resulting hydrogel. The window was formed on each of five faces of the three-dimensional frame as described above. Thereafter, a clump of neurons differentiated from human brain-derived neural stem cells and Matrigel (registered trademark) being an un-gelled culture gel were injected into a cubic space within the three-dimensional frame, and the culture gel was gelled. Then, a hydrogel window was formed on a remaining face of the three-dimensional frame. Through the above, the cell culture module including neurons was produced. […]
# An experiment was conducted for evaluation of the barrier function of the BBB model. […] After the fluorescent dye solution and the medium had flowed for 5 minutes (300 seconds), a fluorescence image and a phase-contrast image of the inside of the cell culture module were captured through the fluidic device.
# FIGS. 24(a) and 24(b) each show a fluorescence image (left) of the inside of the cell culture module including neurons used in the control experiment, and an image (right) obtained by superimposing the fluorescence image and a phase-contrast image on one another. […]
substance,measurement,value
Lucifer Yellow [fluorescent dye],relative luminance value on dashed line x-x' (corresponds to Lucifer Yellow concentration),approximately 0.1
